In US6821980B1, “Substituted 5-benzyl-2,4-diaminopyrimidines” (Basilea Pharmaceutica AG, priority 1999, dated 2004):
pIC50: −log10 of the molar value. In brackets after ≈: the same amount, converted by molar mass.

What was measured:
[1] = system: Streptococcus pneumoniae 1/1; test: MIC against Streptococcus pneumoniae 1/1; assay type: cell-based; settings: Table 2; Streptococcus pneumoniae 1/1, trimethoprim- and penicillin-resistant, serotype 6; clinical isolate; read-out: MIC Sp1/1
[2] = system: Staphylococcus aureus 101; test: MIC against Staphylococcus aureus 101; assay type: cell-based; settings: Table 2; Staphylococcus aureus 101, MRSA- and trimethoprim-resistant; clinical isolate; read-out: MIC Sa101
[3] = molecular target: T1, purified DHFR of strain Sp1/1 of Streptococcus pneumoniae (Streptococcus pneumoniae serotype 4, UniProt Q54801); assay type: biochemical; settings: Table 2; IC50 against purified DHFR of strain Sp1/1
T1 sequence (Q54801 1-168 I100L): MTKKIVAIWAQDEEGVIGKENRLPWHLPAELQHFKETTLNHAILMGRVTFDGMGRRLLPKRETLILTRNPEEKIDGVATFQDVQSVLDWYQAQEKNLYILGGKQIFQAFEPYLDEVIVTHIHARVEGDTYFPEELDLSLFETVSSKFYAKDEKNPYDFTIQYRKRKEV

[4] = molecular target: purified DHFR of strain 157/4696 of Staphylococcus aureus (Staphylococcus aureus, UniProt P13955); test: biochemical
purified DHFR of strain 157/4696 of Staphylococcus aureus, sequence (P13955 whole entry): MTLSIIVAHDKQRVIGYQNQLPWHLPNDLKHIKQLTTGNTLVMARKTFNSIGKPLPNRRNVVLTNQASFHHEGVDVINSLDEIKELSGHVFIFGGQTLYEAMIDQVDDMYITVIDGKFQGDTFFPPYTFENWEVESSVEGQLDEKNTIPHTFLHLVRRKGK

For CCOc1cc(Cc2cnc(N)nc2N)cc(OCC)c1-c1ccc(COCC(=O)N2CCOCC2)s1 [Example 03-a, 2-[5-[4-(2,4-Diamino-pyrimidin-5-ylmethyl)-2,6-diethoxy-phenyl]-thiophen-2-ylmethoxyl]-1-morpholin-4-yl-ethanone], which MIC [1] is on record?
Its MIC is 2 µg/mL (≈ 3.79 µM).

What about the MIC [2] of the same molecule?
The MIC was 8 µg/mL (≈ 15.2 µM).

And the pIC50 [3]?
Its pIC50 is 7.51.

And the pIC50 [4]?
The pIC50 was 5.74.

With CCOc1cc(Cc2cnc(N)nc2N)cc(OCC)c1-c1ccc(COCC(=O)N2CCSCC2)s1 [Example 03-b, 2-[5-[4-(2,4-Diamino-pyrimidin-5-ylmethyl)-2,6-diethoxy-phenyl]-thiophen-2-ylmethoxy]-1-thiomorpholin-4-yl-ethanone] as the molecule, how does the MIC [1] read?
Its MIC is 2 µg/mL (≈ 3.68 µM).

What about the MIC [2] of the same molecule?
Its MIC is 8 µg/mL (≈ 14.7 µM).

And the pIC50 [3]?
Its pIC50 is 7.72.

What about the pIC50 [4] of the same molecule?
The pIC50 was 5.80.

Which results are given for CCOc1cc(Cc2cnc(N)nc2N)cc(OCC)c1-c1ccc(COCC(=O)N2CCCCC2)s1 [Example 03-c, 2-[5-[4-(2,4-Diamino-pyrimidin-5-ylmethyl)-2,6-diethoxy-phenyl]-thionhen-2-ylmethoxy]-1-piperidin-1-yl-ethanone]?
MIC [1]: 2 µg/mL (≈ 3.8 µM); MIC [2]: 8 µg/mL (≈ 15.2 µM); pIC50 [3]: 7.96; pIC50 [4]: 5.70

With CCOc1cc(Cc2cnc(N)nc2N)cc(OCC)c1-c1cc(C)nc(C)c1 [Example 03-d, 5-[4-(2,6-Dimethyl-pyridin-4-yl)-3,5-diethoxy-benzyl]-pyrimidine-2,4-diamine] as the molecule, how does the MIC [1] read?
The MIC was 8 µg/mL (≈ 20.3 µM).

What about the MIC [2] of the same molecule?
The MIC was 8 µg/mL (≈ 20.3 µM).

And the pIC50 [3]?
The pIC50 was 6.47.

And the pIC50 [4]?
Its pIC50 is 5.22.

Which MIC [1] does the source give for CCOc1cc(Cc2cnc(N)nc2N)cc(OCC)c1-c1ccc(SC)nc1 [Example 03-e, 5-[3,5-Diethoxy-4-(6-methylsulphanyl-pyridin-3-yl)-benzyl]-pyrimidine-2,4-diamine] here?
Its MIC is 4 µg/mL (≈ 9.72 µM).

What about the MIC [2] of the same molecule?
The MIC was 8 µg/mL (≈ 19.4 µM).

What about the pIC50 [3] of the same molecule?
The pIC50 was 7.10.

What about the pIC50 [4] of the same molecule?
Its pIC50 is 5.68.

With CCOc1cc(Cc2cnc(N)nc2N)cc(OCC)c1-c1ccc(C#N)cc1 [Example 04-a, 4′-(2,4-Diamino-pyrimidin-5-ylmethyl)-2′,6′-diethoxy-biphenyl-4-carbonitrile] as the molecule, how does the MIC [1] read?
Its MIC is 4 µg/mL (≈ 10.3 µM).

And the MIC [2]?
Its MIC is 8 µg/mL (≈ 20.5 µM).

What about the pIC50 [3] of the same molecule?
Its pIC50 is 7.09.

And the pIC50 [4]?
Its pIC50 is 5.57.

Which results are given for CCOc1cc(Cc2cnc(N)nc2N)cc(OCC)c1-c1ccc(CN2CCCC2)c(F)c1 [Example 04-aa, 5-(2,6-Diethoxy-3′-fluoro-4′-pyrrolidin-1-ylmethyl-biphenyl-4-ylmethyl)-pyrimidine-2,4-diamine]?
MIC [1]: 8 µg/mL (≈ 17.2 µM); MIC [2]: 8 µg/mL (≈ 17.2 µM); pIC50 [3]: 6.48; pIC50 [4]: 5.74

How did the MIC [1] turn out when CCOc1cc(Cc2cnc(N)nc2N)cc(OCC)c1-c1ccc(NC)cc1 [Example 04-ab, 5-(2,6-Diethoxy-4′-methylamino-biphenyl-4-ylmethyl)-pyrimidine-2,4-diamine] was run?
The MIC was 4 µg/mL (≈ 10.2 µM).

And the MIC [2]?
The MIC was 8 µg/mL (≈ 20.3 µM).

What about the pIC50 [3] of the same molecule?
The pIC50 was 6.92.

What about the pIC50 [4] of the same molecule?
Its pIC50 is 5.85.

Which results are given for CCOc1cc(Cc2cnc(N)nc2N)cc(OCC)c1-c1ccc(CN(C)CCF)cc1 [Example 04-ac, 5-(2,6-Diethoxy-4′-{[N-(2-fluoro-ethyl)-N-methyl-amino]-methyl}-biphenyl-4-ylmethyl)-pyrimidine-2,4-diamine]?
MIC [1]: 4 µg/mL (≈ 8.82 µM); MIC [2]: 8 µg/mL (≈ 17.6 µM); pIC50 [3]: 7.23; pIC50 [4]: 6.35

With CCOc1cc(Cc2cnc(N)nc2N)cc(OCC)c1-c1ccc(CN(C)CCF)c(F)c1 [Example 04-ad, 5-(2,6-Diethoxy-3′-fluoro-4′-{[N-(2-fluoro-ethyl)-N-methyl-amino]-methyl}-biphenyl-4-ylmethyl)-pyrimidine-2,4-diamine] as the molecule, how does the MIC [1] read?
The MIC was 4 µg/mL (≈ 8.48 µM).

What about the MIC [2] of the same molecule?
The MIC was 8 µg/mL (≈ 17 µM).

And the pIC50 [3]?
Its pIC50 is 6.77.

And the pIC50 [4]?
Its pIC50 is 5.57.

Which MIC [1] does the source give for CCOc1cc(Cc2cnc(N)nc2N)cc(OCC)c1-c1cc(C)cc(N)c1 [Example 04-ae, 5-(5′-Amino-2,6-diethoxy-3′-methyl-biphenyl-4-ylmethyl)-pyrimidine-2,4-diamine] here?
The MIC was 8 µg/mL (≈ 20.3 µM).

And the MIC [2]?
Its MIC is 8 µg/mL (≈ 20.3 µM).

And the pIC50 [3]?
Its pIC50 is 7.72.

And the pIC50 [4]?
The pIC50 was 5.85.

Which results are given for CCOc1cc(Cc2cnc(N)nc2N)cc(OCC)c1-c1ccc(CNCCF)cc1 [Example 04-ag, 5-{2,6-Diethoxy-4′-[(2-fluoro-ethylamino)-methyl]-biphenyl-4-ylmethyl}-pyrimidine-2,4-diamine]?
MIC [1]: 8 µg/mL (≈ 18.2 µM); MIC [2]: 8 µg/mL (≈ 18.2 µM); pIC50 [3]: 6.46; pIC50 [4]: 5.74
